These results are taken from PMC12005801, “Non‐Membrane Active Peptide Resensitizes MRSA to β‐Lactam Antibiotics and Inhibits S. aureus Virulence” (Advanced Science, 2025).

Test [1] relates to MRSA T144. Description: MIC assay of β-lactams in the presence of AMPs (potentiation). As to conditions: for Potentiation (fold)^c, MIC^a / MIC^b: antibiotic with 1/4 MIC GN1. It is filed as cell-based, Staphylococcus aureus.
Method: A) Potentiation of different AMPs to piperacillin (PIP) against MRSA T144. 1/4 MIC AMPs were mixed with bacteria (10^6 CFU mL^−1) in MH medium and cultured with diluted PIP in 96‐well plates overnight. […] All experiments were conducted with three biological replicates and data were presented as mean ± SD.
Test [2] has as its system S. aureus 29213. Description: MIC of β-lactams with/without GN1. Particulars: for MIC: Staphylococcus aureus, antibiotic alone; for MIC (+1/2 MIC GN1): antibiotic + 1/2 MIC GN1. The class given is cell-based, Staphylococcus aureus. The procedure: MICs determination of drugs was based on the standard microdilution method as described previously.^[ [46] ^] Briefly, compounds were twofold serial dilution with MHB. Next, AMPs were added to the log‐phase bacteria suspensions (1 × 10^6 CFUs mL^−1) and then mixed with compounds in a 96‐well microliter plate (Corning, NY, USA).

The subject of test [3] is MRSA T144. Briefly: MIC assay, agent alone. The class given is cell-based, Staphylococcus aureus. On the set-up: MIC^a, MIC in the presence of AMPs only: unit not given beside the values. As to conditions: for MIC: Staphylococcus aureus.
The subject of test [4] is MRSA T144. Description: Time-killing assay. It is filed as cell-based, Staphylococcus aureus. As to conditions: identical concentrations alone: GN1 8 µg mL^−1, PIP 16 µg mL^−1, 12 h. The procedure:
Briefly, overnight bacteria culture was diluted 1:1000 into LB and incubated for 4 h at 37 °C with 200 rpm. […] At the time points 0, 2, 4, 6, 8, 10, and 12 h, 100 µL bacteria culture was removed and resuspended in PBS and the serial dilutions were spotted on LB agar. After incubation overnight at 37 °C, the colony counts were calculated.

The subject of test [5] is MRSA T144. Particulars: addition of glutamate.
Method: G) Fold changes in MIC values of various β‐lactams in the presence of glutamate against MRSA T144. […] All experiments were conducted with three biological replicates and data were presented as mean ± SD. Statistical significance was analyzed by ordinary one‐way or two‐way ANOVA (*P < 0.05, **P < 0.01, ***P < 0.001, ****P < 0.0001). ns, not significant.
[6] abbreviates: MRSA T144, read-out: MIC^a, MIC in the presence of antibiotics only.
Where [7] appears, read: MRSA, read-out: MIC^a, MIC in the presence of antibiotics only.

Like-named read-outs stand apart in the source and are kept apart here.

For the compound `CC1(C)S[C@@H]2[C@H](NC(=O)[C@H](N)c3ccccc3)C(=O)N2[C@H]1C(=O)O` [Ampicillin], in test [1], the “MIC^b, MIC in combination of antibiotics and 1/4 MIC GN1” value (from here on “MIC^b, MIC in combination”) stood at 8 µg/mL; the “Potentiation (fold)^c, MIC^a / MIC^b” value worked out at 64 fold. Also, in test [2], the MIC stood at 16 µg/mL and the “MIC (+1/2 MIC GN1)” value was 8 µg/mL. For the same compound, the minimal inhibitory concentration (MIC) in test [3] (setting [6]) is 512 µg/mL.

For the compound `CC1(C)S[C@@H]2[C@H](NC(=O)C(C(=O)O)c3ccccc3)C(=O)N2[C@H]1C(=O)O` (stereo partly drawn) [Carbenicillin], in test [1], the “MIC^b, MIC in combination” value turned out to be 1 µg/mL; the “Potentiation (fold)^c, MIC^a / MIC^b” value amounted to 32 fold. Further, the MIC in test [3] (setting [7]) was 32 µg/mL.

With `CO/N=C(\C(=O)N[C@@H]1C(=O)N2C(C(=O)[O-])=C(C[N+]3(C)CCCC3)CS[C@H]12)c1csc(N)n1` [Cefepime], in test [1], the “MIC^b, MIC in combination” value came out at 2 µg/mL; the “Potentiation (fold)^c, MIC^a / MIC^b” value is on record as 4 fold. In addition, in test [2], the MIC was determined as 4 µg/mL and the “MIC (+1/2 MIC GN1)” value is 2 µg/mL. The MIC in test [3] (setting [7]) stood at 8 µg/mL.

Consider `CO/N=C(\C(=O)N[C@@H]1C(=O)N2C(C(=O)O)=C(CSc3nc(=O)c(=O)[nH]n3C)CS[C@H]12)c1csc(N)n1` [Ceftriaxone], for which, in test [1], the “MIC^b, MIC in combination” value stood at 4 µg/mL; the “Potentiation (fold)^c, MIC^a / MIC^b” value worked out at 8 fold. In test [3] (setting [7]), the MIC was determined as 32 µg/mL.

On to `CO/N=C(\C(=O)N[C@@H]1C(=O)N2C(C(=O)O)=C(COC(N)=O)CS[C@H]12)c1ccco1` [Cefuroxime], for which, in test [1], the “MIC^b, MIC in combination” value was 1 µg/mL; the “Potentiation (fold)^c, MIC^a / MIC^b” value was determined as 8 fold. Besides, the MIC in test [3] (setting [7]) was found to be 8 µg/mL.

As to `C[C@@H](O)[C@H]1C(=O)N2C(C(=O)O)=C(S[C@@H]3CN[C@H](C(=O)N(C)C)C3)[C@H](C)[C@H]12` [Meropenem], in test [1], the “MIC^b, MIC in combination” value came to 0.0625 µg/mL; the “Potentiation (fold)^c, MIC^a / MIC^b” value was found to be 16 fold. In test [2], the MIC was 0.0625 µg/mL and the “MIC (+1/2 MIC GN1)” value amounted to 0.03125 µg/mL. Further, in test [3] (setting [7]), the MIC turned out to be 1 µg/mL.

In the case of `Cc1onc(-c2ccccc2)c1C(=O)N[C@@H]1C(=O)N2[C@@H]1SC(C)(C)[C@@H]2C(=O)O` [Oxacillin], in test [1], the “MIC^b, MIC in combination” value was 0.03125 µg/mL; the “Potentiation (fold)^c, MIC^a / MIC^b” value is given as 32 fold. In test [3] (setting [6]), the MIC came out at 1 µg/mL.

`CCN1CCN(C(=O)N[C@@H](C(=O)N[C@@H]2C(=O)N3[C@@H]2SC(C)(C)[C@@H]3C(=O)O)c2ccccc2)C(=O)C1=O` [Piperacillin]: the “Time-kill kinetics, single agent” value in test [4] was “failed to prevent bacterial proliferation”. Moreover, in test [1], the “MIC^b, MIC in combination” value stood at 8 µg/mL. Besides, the MIC in test [2] is 2 µg/mL; in test [3] (MRSA T144, read-out: MIC of PIP alone), 512 µg/mL; in test [3] (setting [6]), over 512 µg/mL. In test [2], the “MIC (+1/2 MIC GN1)” value is 0.5 µg/mL.

Consider `CC1(C)S[C@@H]2[C@H](NC(=O)[C@H](C(=O)O)c3ccsc3)C(=O)N2[C@H]1C(=O)O` [Ticarcillin], for which, in test [1], the “MIC^b, MIC in combination” value stood at 1 µg/mL; the “Potentiation (fold)^c, MIC^a / MIC^b” value is reported as 16 fold. In test [2], the MIC was 2 µg/mL and the “MIC (+1/2 MIC GN1)” value worked out at 2 µg/mL. Further, the MIC in test [3] (setting [6]) was determined as 16 µg/mL.

With `N[C@@H](CCC(=O)O)C(=O)O` [glutamate], the “Reduction of MIC values of three β‐lactam antibiotics” value in test [5] is 2-16 fold.

For Ac-WKVKWKVKWKVK-NH2 [WK-12], the “Potentiation (fold)^c, MIC^c / MIC^b” value in test [1] (MIC of piperacillin only / MIC of piperacillin with 1/4 MIC AMP) stood at 4 fold. In test [1] (label = the AMP added at 1/4 MIC, no unit in table (text gives µg mL^−1)), the “MIC^b, MIC of piperacillin in the presence of 1/4 MIC AMPs” value was 128. Moreover, in test [3] (MRSA T144, microdilution in MHB, 1 × 10^6 CFUs mL^−1, 37 °C, 16–18 h, no unit in table (text gives µg mL^−1)), the “MIC^a, MIC in the presence of AMPs only” value is 32.

In general, MIC refers to the smallest concentration in the dilution series that meets the test's criterion for growth inhibition.
